What was measured:
[1] = test system: tyrosine residues in the cytoplasmic domain of NGFR; assay: Tyrosine phosphorylation of ectodomain/NGFR chimeras expressed in COS1 cells (homophilic complex formation); type: cell-based; conditions: FIG. 9
Description: Cell lysate samples were subjected to separation on SDS-PAGE, followed by a transfer of the proteins in the gel to nitrocellulose membranes (Hybond-ECL, Amersham Pharmacia Biotech, Inc.). After blocking with a solution of 10% skim milk dissolved in TBS (20 mM Tris-HCl buffer, pH 7.5 containing 150 mM NaCl), the membrane was exposed to a monoclonal anti-FLAG M2 antibody (3 μg/ml) for detecting FLAG-tagged MT1-MMP and its mutants. In order to visualize the immunoreactive bands, the membrane was further exposed to an alkaline phosphatase-conjugated goat anti-mouse IgG antibody. For the purpose of detecting a phosphotyrosine residue in chimera proteins, a monoclonal anti-phosphotyrosine antibody, PY20 (1 μg/ml) was used.
By utilizing the above principle, a chimeric protein is first constructed consisting of the ectodomain of MT1-MMP and the transmembrane (TM) and cytoplasmic (CP) domains of NGFR (FIG. 8) in order to test for direct complex formation. When the ectodomain of this chimeric protein forms a homophilic complex in a similar manner, tyrosine residues in the cytoplasmic domain will be phosphorylated.
A FLAG-tagged MT1-MMP (MT1-F) expression construct as used herein was as described in Itoh, Y. et al., J. Biol. Chem. 274: 34260-34266, 1999. In addition, MT1-F was used as a template to generate cDNAs for MT1Cat-F (Δ Ile^318-Gly^535) and MT1PEX-F (ΔTyr^112-Pro^312) by the PCR extension method of Ho et al. (Ho, S. N. et al., Gene, 77: 51-59, 1989). The cDNA was subcloned into pSG5 (Stratagene, CA, USA). Chimera mutants of the ectodomain of MT1-F, MT1Cat-F, MT1PEX-F or MT4PEX-F, with the transmembrane (TM)/cytoplasmic (CP) domain of NGFR were also generated by the PCR method in a similar manner, and subcloned into pSG5. The MT1-MMP-derived sequence corresponded to Met^1 through Asp^515 of MT1-MMP, while the NGFR-derived sequence corresponded to Glu^384 through Gly^790 of NGFR (GenBank™ accession number M23102). The other chimera mutants were also composed from these corresponding sequences. All the PCR-generated fragments were confirmed by DNA sequencing.
Expression vectors for the protein were transfected into COS1 cells, using FuGENE6™ (Roche Molecular Biochemicals) according to the manufacturer's instructions. COS1 cells were seeded in 6-well plates at 1.5×10^5/well at 16 hrs before the transfection was performed. The COS1 cells were maintained in a HAM F-12 medium or DMEM containing 10% fetal bovine serum in a humidified incubator at 37° C. At 48 hrs after the transfection, the cells were collected for use in the experiments.
To monitor the dimer formation of the enzyme in the cells, another approach to detect the molecular interactions was executed. […]

[2] = biological target: T1, proMMP-2 (Homo sapiens, UniProt P08253); assay: ProMMP-2 binding assay on transfected COS1 cells; type: cell-based; conditions: COS1 cells expressing the mutant (FIG. 21)
T1 construct: made in house; host or cells: HighFive insect cells infected with recombinant baculovirus; purified from culture supernatant
T1 sequence (P08253 30-660 limits assumed): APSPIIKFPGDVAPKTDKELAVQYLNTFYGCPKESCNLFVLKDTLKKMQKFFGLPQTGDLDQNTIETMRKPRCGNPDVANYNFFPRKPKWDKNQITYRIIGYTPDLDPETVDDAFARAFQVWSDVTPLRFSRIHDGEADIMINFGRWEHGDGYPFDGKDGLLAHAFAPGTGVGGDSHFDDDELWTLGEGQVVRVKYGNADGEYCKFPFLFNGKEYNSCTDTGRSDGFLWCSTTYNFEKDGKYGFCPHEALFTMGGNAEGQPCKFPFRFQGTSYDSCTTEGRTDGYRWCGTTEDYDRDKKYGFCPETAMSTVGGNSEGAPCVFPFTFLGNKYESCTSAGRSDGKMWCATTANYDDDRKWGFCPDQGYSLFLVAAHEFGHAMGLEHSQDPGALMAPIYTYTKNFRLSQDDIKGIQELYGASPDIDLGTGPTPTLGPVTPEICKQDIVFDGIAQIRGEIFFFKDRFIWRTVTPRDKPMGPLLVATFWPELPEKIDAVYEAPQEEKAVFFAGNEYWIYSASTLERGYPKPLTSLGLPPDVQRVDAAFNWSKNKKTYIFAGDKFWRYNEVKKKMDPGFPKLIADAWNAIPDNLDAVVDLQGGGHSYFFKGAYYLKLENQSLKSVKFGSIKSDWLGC
Description: Transfected COS1 cells were cultured in a 24-well plate (0.2×10^4/well). Forty-eight hours after transfection, the cells were washed three times with serum-free DMEM, and incubated with purified proMMP-2 (2 μg/ml) in the serum-free DMEM at 25° C. for 1 hr. The cells were then washed three times with serum-free DMEM containing 5% dimethyl sulfoxide (DMSO) to remove free proMMP-2, and lysed in 50 μl of a non-reducing SDS-loading buffer. MMP-2 bound to the cells was analyzed by gelatin zymography.

[3] = test system: MT1-MMP; assay: In situ gelatin degrading assay (DQ gelatin or Alexa488-conjugated gelatin); type: cell-based, human; conditions: DQ gelatin; CHO-K1 (FIG. 13) or COS1 cells (FIG. 22)
Description: Two different in situ gelatin degrading assays were performed. One used DQ™ gelatin (Molecular Probes, Inc., OR, USA). DQ gelatin is a fluorescence-quenched gelatin substrate, and will fluoresce upon proteolytic cleavage. Glass cover slips were coated with 5% DQ™ gelatin in a 10 mg/ml unlabeled gelatin solution, and dried. Transfected cells were cultured on the cover slip in a humidified chamber for 16 hrs. The cells were then fixed with 3% para-formaldehyde and the degraded areas were visualized as those showing fluorescence.
The other assay used Alexa488-conjugated gelatin made with an Alexa488-labeling kit (Molecular Probes). The bottom surfaces of 4-well chamber slides (Nunc) were coated with Alexa488-conjugated gelatin according to the method of Yana, I. and Weiss, S. J., Mol. Biol. Cell, 11, 2387-2401, 2000. Transfected COS1 cells were cultured in the chamber slides for 16 hrs in a humidified culture incubator. The cells were then fixed with 3% para-formaldehyde in PBS, and the degraded area was analyzed under a fluorescence microscope. The degraded area was visualized as a dark, non-fluorescent area. Fluorescence images were analyzed using confocal microscopy (BioRad).
(§1) Next, to determine if MT1PEX-F affects the catalytic activity of MT1-MMP on the cell surface or not, tests for gelatin degrading activity and binding capacity to TIMP-2 were conducted using cells transfected in the same incubator. As shown in FIGS. 12 through 14, CHO-K1 cells were transfected with an expression vector for MT1-F, MT1-F/MT1PEX-F or MT1Cat-F, or a vector alone (Mock). The cells were then treated with trypsin, and separately seeded to: DQ™ gelatin-coated cover slips for testing the proteolytic activity (FIG. 13); and 24-well plates for TIMP-2 binding assay (FIG. 12) and for the activation of proMMP-2 (FIG. 14). Transfected cells on the DQ™ gelatin-coated cover slip as shown in FIG. 13 were incubated in a medium at 37° C. for 18 hrs, and the generated fluorescence was analyzed using confocal microscopy. Transfected cells on the 24-well plate as shown in FIG. 12 were incubated with 25 nM ^125I-labeled TIMP-2 in the presence or absence of BB-94 (50 μM) at 0° C. for 1 hr. MT1-MMP specific binding was calculated by subtracting the datum obtained in the presence of BB-94 (50 μM) from each datum derived from the corresponding experiments. Identically transfected cells on the 24-well plate as shown in FIG. 14 were subjected to the reaction with purified proMMP-2 in a serum-free medium at 37° C. for 18 hrs. The cells and culture supernatants were respectively subjected to Western blotting analysis using a monoclonal anti-FLAG M2 antibody, and gelatin zymography analysis. […] DQ™ gelatin is a fluorescence-quenched gelatin, which fluoresces upon proteolytic cleavage. […]

[4] = test system: MT1-MMP; assay: Activation of proMMP-2 by MT1-MMP on the cell surface of transfected cells (gelatin zymography); type: cell-based, human; conditions: transfected COS1 cells, exogenous purified proMMP-2 (FIGS. 2, 20)
Description: Gelatin zymography was conducted using an SDS-polyacrylamide gel (PAGE) containing gelatin (0.8 mg/ml) (Itoh, Y. et al., J. Biol. Chem., 273: 24360-24367, 1998). The samples were mixed with a SDS-PAGE loading buffer without a reducing agent and subjected to electrophoretic analysis at room temperature. Enzyme activity was visualized as a negative staining area with Coomassie Brilliant Blue R-250.
The expression construct for FLAG epitope ([…]-tagged MT1-MMP (MT1-F) described in Itoh, Y. et al., J. Biol. Chem., 274: 34260-34266, 1999 was used as a template to generate cDNA for MT1Cat-F (A Ile^318-Gly^535) by the PCR extension method of Ho et al., (Ho, S. N. et al., Gene, 77: 51-59, 1989). The cDNA was subcloned into pSG5 (Stratagene, CA, USA). The PCR-generated fragments were confirmed by DNA sequencing. COS1 cells were transfected with the expression vector for MT1-MMP mutant; MT1-F or MT1Cat-F, or a vector alone (Mock). Expression vectors for each protein were transfected using FuGENE6™ (Roche Molecular Biochemicals) according to the manufacturer's instructions. COS1 cells were seeded in 6-well plates at 1.5×10^5/well at 16 hrs before the transfection was performed. The COS1 cells were maintained in a HAM F-12 medium or DMEM containing 10% fetal bovine serum in a humidified incubator at 37° C. At 48 hrs after the transfection, the cells were collected for use in the experiments. The cells were incubated in the presence of purified proMMP-2 in a serum-free medium (0.25 μg/ml) at 37° C. for 18 hrs. Cell lysates were tested for the expression of the mutants, while culture supernatants were tested for the activation of proMMP-2.
To investigate roles of dimer formation upon the activation of proMMP-2, MT1-F was introduced into COS1 cells together with MT1PEX-F. The co-introduced cells were reacted with exogenously added proMMP-2. Thus, COS1 cells were co-transfected with the MT1-F and MT1PEX-F at indicated DNA amount ratios. Next, purified proMMP-2 (0.25 μg/ml) in a serum-free medium was reacted with the resulting cells at 37° C. for 18 hrs. MMP-2 in the culture supernatant was analyzed by gelatin zymography, and the cell lysates were subjected to Western blotting analysis using a monoclonal anti-FLAG M2 antibody.
as §1, with “experiments.” for “experiments. Identically transfected cells on the 24-well plate as shown in FIG. 14 were subjected to the reaction with purified proMMP-2 in a serum-free medium at 37° C. for 18 hrs. The cells and culture supernatants were respectively subjected to Western blotting analysis using a monoclonal anti-FLAG M2 antibody, and gelatin zymography analysis.”

ternary complex formation with TIMP-2/proMMP-2 on the cell surface [2]	Substance	tyrosine phosphorylation of the chimera (Anti-PY) [1]	gelatin degrading (proteolytic) activity of cells expressing the mutant [3]	activation of proMMP-2 by cells expressing the mutant [4]
–	MT1-F/NGFR: Chimera of the ectodomain of MT1-F with the transmembrane/cytoplasmic domain of NGFR	phosphorylated	–	–
can form a ternary complex	MT1-MT4PEX: MT1-MMP in which Cys319 to Cys508 is replaced with Cys336 to Cys527 of mouse MT4-MMP	–	showed proteolytic activity	did not activate proMMP-2
–	MT1Cat-F/NGFR: Chimera of the ectodomain of MT1Cat-F with the transmembrane/cytoplasmic domain of NGFR	extremely low	–	–
–	MT1PEX-F/NGFR: Chimera of the ectodomain of MT1PEX-F with the transmembrane/cytoplasmic domain of NGFR	strongly phosphorylated	–	–
–	MT4PEX-F/NGFR: Chimera of the ectodomain of MT4PEX-F with the transmembrane/cytoplasmic domain of NGFR	extremely low	–	–
